Measurements published in patent publication US20260000654A1, “USE OF BENCYCLOQUIDIUM BROMIDE, ISOMER THEREOF AND DERIVATIVE THEREOF IN PREPARATION OF OPHTHALMIC FORMULATION” (Beijing Yingu Medicine Sci Techno Co., Ltd., priority 2023, published 2026).
Entries after “also recorded” stand apart in the source; their conditions may differ.

Tested on: animal model of form-deprivation myopia (FDM)
Assay: form-deprivation myopia (FDM) model experiment on colorful guinea pigs
Settings: for change value of ocular axial length: 0.05% eye drops once a day, after four weeks, compared with model control group; for body weight: during the experiment, among the groups
Procedure: An animal model of form-deprivation myopia (FDM) was prepared by using the monocular deprived (MD) method, i.e., covering one eye with an opaque eye patch to cause form-deprivation.
Models were established for each group of animals, and drugs were started on the first day of modeling. The model control group (FDM), positive control group (FDM+atropine), and bencycloquidium bromide group (FDM+the eye drops of bencycloquidium bromide) were given blank solvent, 0.05% atropine, and 0.05% eye drops of bencycloquidium bromide by instillation into the conjunctival sac, once a day, 20 L/eye, for a total of four weeks. Among them, the component of the blank solvent is water for injection; the components of 0.05% atropine using water for injection as solvent comprises 0.05% of atropine, 1.0% of polyvinyl alcohol, and 0.02% of benzalkonium chloride; and the osmotic pressure regulator is sodium chloride, and the osmolality of the eye drops is adjusted to 300 to 320 mOsmol/kg, and the pH regulator is phosphate buffer (NaH2PO4—Na2HPO4), which is used to adjust the pH value of the eye drops to 6.8.
The detection indicators were as follows: • (1) Animals are generally observed clinically once a day. • (2) Animal body weight is measured upon receipt, on the 7th and 14th days of quarantine, and twice a week after modeling. • (3) The anterior chamber depth, lens thickness, vitreous cavity depth and ocular axial length were checked before modeling and once a week after administration. • (4) The diopter was checked before modeling and once a week after administration.

| SMILES | change value of ocular axial length (guinea pig FDM model) | body weight (guinea pig FDM model) | trend of diopter decline (guinea pig FDM model, 0.05% eye drops per day during four-week modeling period) | preventive effect on myopia (guinea pig FDM myopia model) |
| --- | --- | --- | --- | --- |
| CN1[C@@H]2CC[C@H]1C[C@@H](OC(=O)C(CO)c1ccccc1)C2 (stereo partly drawn) [atropine] | significantly reduced | no significant difference in body weight | – | – |
| C[N+]12CCC(CC1)C(OCC(O)(c1ccccc1)C1CCCC1)C2 (stereo not drawn) [bencycloquidium bromide] | significantly reduced; also recorded: significantly inhibit | no significant difference in body weight | significantly inhibit the trend of diopter decline | significant preventive effect |
